US9878996B2, “2-imidazolyl-pyrimidine scaffolds as potent and selective inhibitors of neuronal nitric oxide synthase” (Northwestern University, priority 2014, dated 2018)
“Also recorded” adds a separate entry of the source. Read-outs that look alike come from different tables or passages of the source.

Columns and labels:
human nNOS = human nNOS (Homo sapiens (Human), UniProt P29475); settings: for Ki: read-out: Ki hnNOS, Ki from IC50 by Cheng-Prusoff
iNOS [1] = molecular target: T1, iNOS (Mus musculus (Mouse), UniProt P29477); settings: for Ki: read-out: Ki iNOS, Ki from IC50 by Cheng-Prusoff; for Ratios n/i: selectivity nNOS over iNOS
rat nNOS = rat nNOS (Rattus norvegicus (Rat), UniProt P29476)
eNOS [2] = molecular target: eNOS (Bos taurus, UniProt P29473); settings: read-out: Ki eNOS; Ki from IC50 by Cheng-Prusoff
Sequence of eNOS (Bos taurus, UniProt P29473) (P29473 2-1205 limits assumed): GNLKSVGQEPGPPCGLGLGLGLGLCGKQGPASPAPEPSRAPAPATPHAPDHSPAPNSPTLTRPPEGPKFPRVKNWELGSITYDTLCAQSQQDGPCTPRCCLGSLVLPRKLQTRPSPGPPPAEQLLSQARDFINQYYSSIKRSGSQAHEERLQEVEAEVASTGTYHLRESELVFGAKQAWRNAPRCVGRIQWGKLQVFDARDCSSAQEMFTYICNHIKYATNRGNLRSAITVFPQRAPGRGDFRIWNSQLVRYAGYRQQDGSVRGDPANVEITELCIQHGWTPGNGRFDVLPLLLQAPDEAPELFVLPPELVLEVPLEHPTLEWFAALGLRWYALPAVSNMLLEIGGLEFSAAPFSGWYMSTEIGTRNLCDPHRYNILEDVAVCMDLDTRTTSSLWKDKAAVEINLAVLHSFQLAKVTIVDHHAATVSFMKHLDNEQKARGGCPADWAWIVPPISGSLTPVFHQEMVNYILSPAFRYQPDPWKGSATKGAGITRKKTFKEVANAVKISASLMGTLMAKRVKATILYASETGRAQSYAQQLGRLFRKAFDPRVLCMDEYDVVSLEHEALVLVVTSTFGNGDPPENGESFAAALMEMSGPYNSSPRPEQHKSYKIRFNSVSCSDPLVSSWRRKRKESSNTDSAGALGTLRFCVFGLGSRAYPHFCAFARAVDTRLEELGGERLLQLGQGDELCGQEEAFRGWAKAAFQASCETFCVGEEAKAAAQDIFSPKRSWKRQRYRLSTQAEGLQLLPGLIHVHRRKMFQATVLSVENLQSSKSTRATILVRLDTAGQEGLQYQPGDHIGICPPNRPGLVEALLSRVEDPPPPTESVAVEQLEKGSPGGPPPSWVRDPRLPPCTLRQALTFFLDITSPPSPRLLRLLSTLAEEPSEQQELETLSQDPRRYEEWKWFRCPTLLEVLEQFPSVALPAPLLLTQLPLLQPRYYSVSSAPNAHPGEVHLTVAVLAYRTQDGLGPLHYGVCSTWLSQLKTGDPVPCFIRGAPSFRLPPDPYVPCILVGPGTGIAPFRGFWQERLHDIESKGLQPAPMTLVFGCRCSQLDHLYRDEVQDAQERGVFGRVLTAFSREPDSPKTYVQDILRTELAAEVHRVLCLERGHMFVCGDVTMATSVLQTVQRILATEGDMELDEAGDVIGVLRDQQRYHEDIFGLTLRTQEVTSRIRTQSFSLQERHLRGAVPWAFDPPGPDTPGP

eNOS [3] = settings: for Ratios n/e: selectivity nNOS over eNOS
[4] = test system: panel of other CNS targets, including the muscarinic receptors; test: Primary binding assays on a panel of other CNS targets (NIMH PDSP); settings: 10 μM concentration
caco-2 = test: Caco-2 assay; format: in vitro ADME
CYP3A4 = CYP3A4 (Homo sapiens (Human), UniProt P08684); test: CYP3A4 inhibition; format: in vitro ADME
Sequence of CYP3A4 (P08684 whole entry, species assumed): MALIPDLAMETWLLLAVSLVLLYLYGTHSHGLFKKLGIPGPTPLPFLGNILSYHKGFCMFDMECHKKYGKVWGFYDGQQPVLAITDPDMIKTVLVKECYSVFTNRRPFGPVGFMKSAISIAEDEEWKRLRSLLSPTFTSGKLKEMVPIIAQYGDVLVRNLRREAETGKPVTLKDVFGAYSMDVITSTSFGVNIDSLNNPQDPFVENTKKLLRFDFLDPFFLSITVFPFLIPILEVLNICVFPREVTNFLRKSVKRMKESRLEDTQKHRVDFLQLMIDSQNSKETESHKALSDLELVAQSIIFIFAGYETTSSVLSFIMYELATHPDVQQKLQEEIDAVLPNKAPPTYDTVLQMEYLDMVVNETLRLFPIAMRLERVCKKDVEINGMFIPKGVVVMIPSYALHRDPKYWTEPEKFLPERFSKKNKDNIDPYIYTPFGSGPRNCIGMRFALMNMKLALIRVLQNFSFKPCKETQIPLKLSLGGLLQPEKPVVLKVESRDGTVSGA

iNOS [5] = molecular target: T1, iNOS; test: biochemical
[6] = read-out: Ki nNOS, rat nNOS, Ki from IC50 by Cheng-Prusoff
[7] = rat nNOS, Ki from IC50 by Cheng-Prusoff

| Compound | Ki (human nNOS) | Ki (iNOS [1]) | Ki (rat nNOS; [6]) | Ki (eNOS [2]) | Ratios n/i (iNOS [1]) | Ratios n/e (eNOS [3]) | also measured |
| --- | --- | --- | --- | --- | --- | --- | --- |
| N#Cc1cccc(CNCCc2ccnc(-n3ccnc3)n2)c1 [Compound 28] | 138 nM | 3400 nM | 183 nM | 10500 nM |  |  |  |
| Fc1cccc(C2CC2CNCCc2ccnc(-n3ccnc3)n2)c1 (centres unmarked) [Compound 26] | 359 nM | 1900 nM | 56 nM | 4000 nM | 34 | 71 |  |
| Fc1cccc(CCCNCCc2ccnc(-n3ccnc3)n2)c1 [Compound 7] | 193 nM | 770 nM | 19 nM | 4950 nM |  |  | inhibition of other CNS targets [4]: minimal inhibition for most of them; membrane / cellular permeability (caco-2): good cellular permeability; also recorded: has membrane permeability |
| Fc1cccc(CC2CC2NCCc2ccnc(-n3ccnc3)n2)c1 (centres unmarked) [Compound 27] | 358 nM |  | 40 nM | 14500 nM |  |  |  |
| Fc1cccc(CCNCCc2ccnc(-n3ccnc3)n2)c1 [Compound 6] |  | 1100 nM |  | 4000 nM |  |  |  |
| Fc1cccc(CCCNCCc2ccnc(-n3ccnn3)n2)c1 [Compound 30] |  |  | 60000 nM |  |  |  |  |
| Fc1cccc(CCNCCc2cncc(-n3ccnc3)c2)c1 [Compound 48] |  |  | 5500 nM |  |  |  |  |
| Fc1cccc(CCN2CCN(c3ccnc(-n4ccnc4)n3)CC2)c1 [Compound 2] |  |  | 4700 nM |  |  |  |  |
| c1cncc(CCCNCCc2ccnc(-n3ccnc3)n2)c1 [Compound 29] | 125 nM |  | 54 nM | 10900 nM |  |  | Ki hnNOS (human nNOS; Ki from IC50 by Cheng-Prusoff): good potency; Ki nNOS (rat nNOS; [7]): good potency |
| Cc1cn(-c2nccc(CCNCCCc3cccc(F)c3)n2)cn1 [Compound 31] | 4490 nM |  | 667 nM |  | 430 | 256 | Ki (rat nNOS; read-out: potency for nNOS): 667 nM; IC50 (CYP3A4): 15000 nM; Ki (iNOS [5]): 287000 nM |
| Fc1cccc(CCNCCNc2ccnc(-n3ccnc3)n2)c1 [Compound 3] |  | 6400 nM | 370 nM | 40000 nM | 17 | 109 | selectivity over iNOS (iNOS [1]): 17 fold; Ki nNOS (rat nNOS; [7]): moderate submicromolar; selectivity over eNOS (eNOS [3]): > 100 fold |
| Fc1cccc(CCNCc2ccnc(-n3ccnc3)n2)c1 [Compound 4] |  |  | 8700 nM |  |  |  |  |
| Fc1cccc(CCCNCc2ccnc(-n3ccnc3)n2)c1 [Compound 5] |  | 10500 nM | 2700 nM | 90000 nM | 4 | 33 |  |
| Clc1cccc(CCCNCCc2ccnc(-n3ccnc3)n2)c1 [Compound 25] | 125 nM |  | 32 nM | 8100 nM | 28 | 253 | Ki (iNOS [5]): 2000 nM |
